We go through five compounds from the supplement of paper PMC10477900.

Assay [1] deals with HCT116. Put plainly: viability inhibition vs untreated; higher = more cytotoxic. The conditions noted are these: 72 h.
Assay [2] relates to HCT116. The settings on record: 72 h. As to the method:
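HCT116 control and MTA1-KO (CRISPR) HCT116 cells were seeded in 384-well plates (800 cells/well), treated 16 h later with 237 metabolism-related anticancer drugs at five doses (10 uM, 2 uM, 400 nM, 80 nM, 16 nM) for 72 h, two replicates; viability by CCK8. Values are % inhibition of viability relative to untreated cells, plus fitted IC50.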

Turning to `COc1cc(/C=C/C(=O)CC(=O)/C=C/c2ccc(O)c(OC)c2)ccc1O` [Curcumin], the viability inhibition in the assay on HCT116 [1] (genotype: MTA1-KO, 16 nM) was -19.2%; in the assay on HCT116 [1] (genotype: MTA1-KO, 80 nM) it was -16.2%; with HCT116 [1] (genotype: MTA1-KO, 400 nM) it was -19.6%; with HCT116 [1] (genotype: MTA1-KO, 2000 nM), -14.2%; with HCT116 [1] (genotype: MTA1-KO, 10000 nM) it was 61.7%; in the assay on HCT116 [1] (genotype: control, 16 nM), -1.96%. In addition, the viability inhibition in the assay with HCT116 [1] (genotype: control, 80 nM) was 7.36%; in the assay with HCT116 [1] (genotype: control, 400 nM), -4.61%; with HCT116 [1] (genotype: control, 2000 nM), 4.83%; in the assay with HCT116 [1] (genotype: control, 10000 nM) it was 60.8%. The 50% inhibitory concentration (IC50) was determined as 7.8 µM with HCT116 [2] (genotype: MTA1-KO) and 7.85 µM in the assay on HCT116 [2] (genotype: control).

For the compound `CC1=C(/C=C/C(C)=C/C=C/C(C)=C/C(=O)Nc2ccc(O)cc2)C(C)(C)CCC1` [Fenretinide], the viability inhibition in the assay on HCT116 [1] (genotype: MTA1-KO, 16 nM) is -13%; with HCT116 [1] (genotype: MTA1-KO, 80 nM), -18.5%; in the assay on HCT116 [1] (genotype: MTA1-KO, 400 nM), -15%; with HCT116 [1] (genotype: MTA1-KO, 2000 nM) it was -14.4%; in the assay on HCT116 [1] (genotype: MTA1-KO, 10000 nM), -2.3%; in the assay on HCT116 [1] (genotype: control, 16 nM), 23.7%. Moreover, the viability inhibition turned out to be 2.62% with HCT116 [1] (genotype: control, 80 nM); 1.09% in the assay with HCT116 [1] (genotype: control, 400 nM); 9.79% in the assay with HCT116 [1] (genotype: control, 2000 nM); 15.3% with HCT116 [1] (genotype: control, 10000 nM). Further, the IC50 in the assay with HCT116 [2] (genotype: MTA1-KO) and with HCT116 [2] (genotype: control) was greater than 10 µM each time.

On to `C/C=C/c1cc(OC)c(OC)cc1OC` [alpha-Asarone], for which the viability inhibition in the assay with HCT116 [1] (genotype: MTA1-KO, 16 nM) was -3.55%; in the assay with HCT116 [1] (genotype: MTA1-KO, 80 nM), -23.5%; in the assay on HCT116 [1] (genotype: MTA1-KO, 400 nM), -15.1%; in the assay with HCT116 [1] (genotype: MTA1-KO, 2000 nM), -10.5%; with HCT116 [1] (genotype: MTA1-KO, 10000 nM) it was 9.18%; with HCT116 [1] (genotype: control, 16 nM), -6.36%. Also, the viability inhibition with HCT116 [1] (genotype: control, 80 nM) is -8.84%; with HCT116 [1] (genotype: control, 400 nM) it was -15.6%; in the assay on HCT116 [1] (genotype: control, 2000 nM), -8.42%; in the assay on HCT116 [1] (genotype: control, 10000 nM) it was -0.859%. Moreover, the half-maximal inhibitory concentration (IC50) in the assay with HCT116 [2] (genotype: MTA1-KO) and in the assay on HCT116 [2] (genotype: control) was greater than 10 µM each time.

On to `O=c1oc2ccccc2c(O)c1Cc1c(O)c2ccccc2oc1=O` [Dicumarol], for which the viability inhibition is 4.75% in the assay with HCT116 [1] (genotype: MTA1-KO, 16 nM); 8.83% in the assay with HCT116 [1] (genotype: MTA1-KO, 80 nM); 21.4% in the assay on HCT116 [1] (genotype: MTA1-KO, 400 nM); 67.8% with HCT116 [1] (genotype: MTA1-KO, 2000 nM); 64.3% in the assay on HCT116 [1] (genotype: MTA1-KO, 10000 nM); 10.4% in the assay on HCT116 [1] (genotype: control, 16 nM). The viability inhibition in the assay on HCT116 [1] (genotype: control, 80 nM) is 23.6%; in the assay on HCT116 [1] (genotype: control, 400 nM) it was 22.5%; in the assay on HCT116 [1] (genotype: control, 2000 nM), 66.6%; in the assay on HCT116 [1] (genotype: control, 10000 nM) it was 65.9%. For the same compound, the figures for the IC50 in the assay on HCT116 [2] (genotype: MTA1-KO) and in the assay with HCT116 [2] (genotype: control) were 0.444 µM and 0.54 µM, respectively.

As for `Nc1cccc(S(=O)(=O)N2CCCN(S(=O)(=O)c3ccc4c(c3)OCCO4)CC2)c1` [DASA58], the viability inhibition is -0.728% in the assay on HCT116 [1] (genotype: MTA1-KO, 16 nM); -19.4% with HCT116 [1] (genotype: MTA1-KO, 80 nM); -15.8% in the assay with HCT116 [1] (genotype: MTA1-KO, 400 nM); -12.1% in the assay with HCT116 [1] (genotype: MTA1-KO, 2000 nM); 75% with HCT116 [1] (genotype: MTA1-KO, 10000 nM); -13.2% with HCT116 [1] (genotype: control, 16 nM). Besides, the viability inhibition is -25.9% with HCT116 [1] (genotype: control, 80 nM); -13.7% in the assay with HCT116 [1] (genotype: control, 400 nM); -17.4% in the assay with HCT116 [1] (genotype: control, 2000 nM); -6.72% with HCT116 [1] (genotype: control, 10000 nM). The figures for the IC50 in the assay on HCT116 [2] (genotype: MTA1-KO) and in the assay on HCT116 [2] (genotype: control) were 6.95 µM and greater than 10 µM, respectively.
